Assay results as given in article PMC9532535 (Acta Pharmaceutica Sinica. B, 2022).

Experiments:
[1] = Measurement of critical aggregation concentration; format: physicochemical; settings: in water, 37 °C overnight, ACQ probe P2 fluorescence
[2] = ref [37]; cited from earlier work
[3] = tested on: Caco-2 monolayer; test: Transport across the Caco-2 monolayer; format: in vitro ADME; settings: Caco-2 monolayer without Raji

CAC (critical aggregation concentration) [1] [mmol/L] | transport of PTX in the Caco-2 monolayer [3] | Molecule | plasma protein binding [2]
0.19 ± 0.01 |  | Choline oleate | 
0.37 ± 0.02 |  | CCCCCCCCCCCCCCCCCC(=O)[O-].C[N+](C)(C)CCO [Choline stearate] | 
 | negligible | CC(=O)O[C@H]1C(=O)[C@@]2(C)[C@H]([C@H](OC(=O)c3ccccc3)[C@]3(O)C[C@H](OC(=O)[C@H](O)[C@@H](NC(=O)c4ccccc4)c4ccccc4)C(C)=C1C3(C)C)[C@]1(OC(C)=O)CO[C@@H]1C[C@@H]2O [PTX, paclitaxel] | greater than 90%
